Data as given in patent publication US20120035187A1 (priority 2009, published 2012).

Legend:
PC12-HS cells [1] = test: Evaluation A: neurocyte (cell)-growth-promoting action, ALAMAR BLUE; assay type: cell-based, rat; conditions: compound concentration 25 ng/ml
Procedure: Then, the effects of test samples were judged as follows:
The relative value of 140 to 199: Equivalent effect to that of NK-4, symbol (∘); The relative value of 200 or higher: Stronger effect than that of NK-4, symbol ([…]). • The results are in Table 6.
The relative fluorescent intensity of each well was determined by using the fluorescent intensity of each well with cells, which had been cultured by admixing with D-MEM medium containing 10% by volume of FBS without any of the compounds, and the intensity of the resulting culture was regarded as 100%. The results are expressed as cell survival percentages (%) in Table 9. […]
The test was conducted twice for each test sample in a triplicate manner and the data were averaged.
Seven compounds as in Table 17, NK-234, NK-26, NK-9815, NK-9694, NK-28 and NK-147 as well as NK-4, were each dissolved in DMSO to give a concentration of 5 mg/ml. […] The test was conducted twice for each test sample in a triplicate manner and the data were averaged.

PC12-HS cells [2] = test: Evaluation B: neurite-outgrowth action in presence of NGF; assay type: cell-based, rat; conditions: for Evaluation B: Neurite-outgrowth action: 50 μl of 400 ng/ml test sample solution per well + NGF final 5 ng/ml, 3 days
[3] = test system: hamsters with cerebellar ataxia; test: Rotarod test in hamsters with cerebellar ataxia; assay type: in vivo, hamster; conditions: hamster with cerebellar ataxia; agent of Example 1, 0.5 ml/hamster intraperitoneally once a day for 56 days
From the text: Since NK-4 was confirmed to have a neurodegenerative inhibitory action in Experiment 1, hamsters with cerebellar ataxia (cerebellar ataxia is called “cerebellar A” and hamsters with cerebellar ataxia are called “hamsters with cerebellar A”, hereinafter) as a suitable model for human neurodegenerative diseases (e.g., spinal cerebellar degeneration) were subjected to examine the influence of NK-4 administration on their behaviors and brain tissues. Twenty-five hamsters with natural mutation (Nna1 inhibition), which are known to lose Purkinje's cells after three-weeks of age and then induce a spontaneous onset of kinetic motor ataxia after seven-weeks of age (see Akita K. et al., “J. Neurogenetics”, Vol. 21, pp. 19-29, 2007), had been fed at Hayashibara Biochemical Laboratories., Inc., Okayama, Japan, were randomly allocated to the test groups 1 to 5, five heads in each group, as shown in Table 2. Prior to the onset of cerebellar A (at three-weeks of age), PBS was started to administer to the hamsters in the test group 1 at a dose of 10 ml/kg/day. Prior to the onset of cerebellar A (at three-weeks of age), NK-4 was started to be administered to the hamsters in the test groups 2 to 4 at a daily dose of 20 μg/kg, 100 μg/kg or 500 μg/kg. “IGF-1, human, a product name of insulin-like growth factor, commercialized by Assaypro LLC, MO, USA. These administered ingredients were intraperitoneally administered daily to hamsters once a day up to 10-weeks of age. The degree of symptom of cerebellar A and the improvement effect on the symptom by NK-4 were evaluated with an index of improvement in motor coordination of hamsters by conducting once a week the later described rotarod test and the slant tolerance test. At the age of 10-weeks, the hamsters were subjected to counting the falling down frequency and extracted their brains, which were then histologically evaluated. In parallel, the concentration of glutamic acid in the bloods and cerebrospinal fluids (CSF) of the hamsters was assayed. As a test group 6, five normal hamsters, with the same age as the hamsters with cerebellar A used in the test groups 1 to 5, were provided and tested similarly as the hamsters with cerebellar A in such a manner of intraperitoneally administering PBS to them at a dose of 10 ml/kg/day once a day up to 10-weeks of age.
As an index for coordinated movement, it was used a duration time of hamster's movement to staying on a rotarod by locomotion in synchronization with the turn of the rotarod; placing a hamster on an apparatus with a rotarod (having a diameter of 60 mm, prepared by Hayashibara Biochemical Laboratories, Inc., Okayama, Japan), turning at a constant rate of six rpm, and measuring the time until the hamster falls down from the rotarod (see Fernandez et al., “Proc. Natl. Acad. Sci. USA”, Vol. 95, pp. 1253-1258, 1998). The test was repeated six times for each hamster, where five-times of tests starting from the initiation of the test were made as a preliminary examination, and the time until each hamster fell down from the rotarod (called “falling time”, hereinafter) was measured, followed by averaging the falling times for each group consisting of five heads. The falling time was measured until 180 seconds. Based on the results, the relationship between the age and the falling time for each hamster with cerebellar A (test group 1) administered with PBS was graphed. […]
Similarly as in Experiment 2, 130 hamsters with cerebellar ataxia, born within the same week and 3-weeks of age, were randomly divided into 13 groups, consisting of 10 hamsters, respectively. […]

[4] = test system: ICR mice administered with amyloid β fragment; test: Degeneration or defect of hippocampal pyramidal cells, mouse administered with amyloid β fragment, agents of Example 1; assay type: in vivo; conditions: 4-point grade score none (0) to severe (3), average of 10 mice; agent of Example 1, 0.3 ml/head intraperitoneally once a day up to the 8th day
Procedure: One hundred and thirty ICR mice (commercialized by Charles Liver Laboratories Japan Inc., Kanagawa, Japan) were randomly divided into 13 groups, consisting of 10 mice in each group. Amyloid β fragment, represented by an amino acid sequence of SEQ ID NO: 1, used in Experiment 3 was aged at 37° C. for four days, and administered to the lateral ventricle of each mouse in an amount of 9 nmol/6 μl/mouse (the administration method is referred to “Brain Research”, Vol. 706, pp. 181-193 (1996)). […] The mice (10 heads) in the remaining one group were intraperitoneally administered with a sterilized 10% maltose solution (pyrogen-free) once a day up to the 8th day in an amount of 0.3 ml/mouse (control). On the 8th day after the administration, novel object recognition test (see, Japanese Patent Kokai No. 2008-193941) was performed and the average discrimination index (the ratio of prolonged seeking time for novel object to the total seeking time) as a cognitive function index were shown in Table 26. On the 9th day after the administration, the brain of the mice was anatomically isolated, prepared into tissue samples in conventional manner. Depositions of aggregation of amyloid fragment were observed by staining with Congo red or thioflavin T, and degeneration or defect of hippocampal pyramidal cells concerned with cognitive function. The degeneration or the defect of hippocampal pyramidal cells was evaluated by 4-point grade score, by regarding the condition of the control without administration of amyloid β fragment as “none (O)”, “slight (1)”, “moderate (2)”, and “sever (3)”, and the average scores of 10 mice are shown in Table 20.

Row | SMILES | Action of enhancing cell growth (%) (PC12-HS cells [1]) | Action on neurite outgrowth (%) (PC12-HS cells [2]; compound concentration 80 ng/ml) | Action on neurite outgrowth (%) (PC12-HS cells [2]; compound concentration 400 ng/ml) | Action on neurite outgrowth (%) (PC12-HS cells [2]; compound concentration 2000 ng/ml) | Action on neurite outgrowth (%) (PC12-HS cells [2]; compound concentration 10000 ng/ml) | Time of falling from rotarod [3] | Evaluation B: Neurite-outgrowth action (PC12-HS cells [2]) | Degeneration/defluxion of hippocampal pyramidal cell [4]
1 | CCCN1C=CC(=CC=C(C=Cc2cc[n+](CCC)c3ccccc23)c2cc[n+](CCC)c3ccccc23)c2ccccc21.[I-].[I-] [NK-234] | 168 ± 45% | 24 ± 7% | 57 ± 7% | 61 ± 3% | 66 ± 20% |  |  | 
2 | CN(C)c1ccc(/C=C/c2oc3ccccc3[n+]2C)cc1 [NK-528] |  |  |  |  |  | 37.5 ± 11.2 s | ∘ (The test sample with a neurite outgrowth rate of 30% or higher was judged to be equivalent or more (∘) compared with NK-4) | 2.2
3 | COc1ccc2oc(/C=C/c3ccc(N(C)C)cc3)[n+](C)c2c1 [NK-1516] |  |  |  |  |  | 42.4 ± 6.3 s | ∘ (The test sample with a neurite outgrowth rate of 30% or higher was judged to be equivalent or more (∘) compared with NK-4) | 1.9
